The test system of test [1] is mice subjected to the formalin test. The test is described as follows: Formalin test (inflammatory pain model), pain behavior in mice. Type of test: in vivo, mouse. Here is the method: The formalin test, which is an inflammatory pain model and is commonly used as a neuropathic pain model in a broad sense, was used to evaluate the pain-inhibiting effect of disulfiram (DSF).
In the formalin test, each mouse was placed in a transparent container for 30 minutes for acclimation to the analysis environment. Thereafter, a test drug or a solvent control (a solution of 10% DMSO and 2% Tween-80) was administered intraperitoneally to each mouse, and 30 minutes later, 20 μL of 1% formalin was injected subcutaneously from the palmar surface of the right hind paw to observe pain behavior in each mouse. The duration (sec.) of paw lifting and paw licking was used as a measured value of intensity of pain.
The formalin test is one of the commonly used models that are used as pain models to evaluate analgesic effects. A biphasic pain-like behavior is observed in the formalin test; the first response appears within 5 minutes and disappears till 10 minutes after the administration of formalin, and the second response is a response that reappears within 10 to 15 minutes after the administration of formalin (FIG. 1A).
DSF is metabolized in the body to generate diethyldithiocarbamate (DDC). The analgesic effects of metal complexes of DDC, which are considered to generate DDC in the body as well as DSF, was evaluated by the formalin test. The formalin test was performed in the same manner as in the above-described section 1. except that a copper complex of DDC (Cu(DDC)2) and an iron(III) complex of DDC (Fe(DDC)3) were used as test drugs. Either of the complexes was administered to mice at a dose of 40 mg/kg.

Test [2] has as its system sciatic nerve ligation (CCI) mouse. Nature of the test: Sciatic nerve ligation (CCI) model, plantar test of pain threshold for heat. The following applies: 40 mg/kg intraperitoneally, plantar test 30 min after administration; p<0.01 (FIG. 2). Type of test: in vivo. The text has this:
Since central sensitization was known to be involved in the second phase pain response in the formalin test, DSF was expected to also exert its effects on neuropathic pain. […] Thus, the sciatic nerve ligation (CCI) model, which is commonly used as a neuropathic pain mouse model, was used to evaluate the efficacy of DSF. In the sciatic nerve ligation (CCI) mouse group, a femoral region of each mouse was cut open and the muscle layer was removed to expose the sciatic nerve, and the sciatic nerve was ligated with 6-0 silk sutures at three positions spaced 1 mm apart, and the incision was then closed. In contrast, each mouse in the sham operation (Sham) group was subjected to the same operation till the muscle layer was removed, and the incision was then closed without ligating the exposed sciatic nerve. On one week postsurgery or later, the planter test was performed to evaluate the pain threshold for heat, which was a stimulus not associated with stimulant administration, in those mice. DSF was administered intraperitoneally to mice in the CCI DSF group at a dose of 40 mg/kg. The solvent control (a solution of 10% DMSO and 2% Tween-80) was administered instead of DSF to mice in the CCI control group. The plantar test was performed 30 minutes after administration.

SMILES strings stand for the structures.

For the molecule `CCN(CC)C(=S)SSC(=S)N(CC)CC` [DSF, tetraethylthiuram disulfide], the “analgesic effect (suppression of the second response) at 10 mg/kg” value in test [1] (10 mg/kg intraperitoneally, versus solvent control (FIG. 1C)) was “significant analgesic effects”. Besides, in test [1] (40 mg/kg intraperitoneally, 30 min before 1% formalin, p<0.001 (FIG. 1B)), the “suppression of the second response (pain score) in the formalin test” value is reported as “strongly suppressed”. The “dose dependency of suppression of the second response relative to solvent control (100%)” value in test [1] (DSF dose groups, intraperitoneal (FIG. 1C)) is recorded as “analgesic effects in a dose-dependent manner”. For the same molecule, the “analgesic effect compared with existing analgesics (pregabalin, loxoprofen, aspirin), suppression of the second response” value in test [1] (all drugs at a fixed dose of 40 mg/kg (FIG. 1D)) is on record as “stronger analgesic effects than all of the tested existing analgesics”. For the same molecule, in test [1] (mice in the formalin test after intraperitoneal administration), the “sedative effect (behavior of treated mice)” value is “behaved more quietly”. Further, the “reduction in pain threshold associated with sciatic nerve ligation (CCI)” value in test [2] is on record as “prevented to a significant degree”.

The record behind these values is US20210220320A1, “ANALGESIC AGENT AND SEDATIVE AGENT” (THE UNIVERSITY OF TOKYO, priority 2018, published 2021).
